Results: US11098040B2, “Compounds and methods of use” (Ferro Therapeutics, Inc., priority 2018, dated 2021)

Assays:
[1] = Whole blood stability, mouse; assay type: in vitro ADME
Source text: (§1) The results of the assay on stability in blood and IC50 values for pancreatic cancer cell line KP4 are given below in Table 24.

[2] = Whole blood stability, human; assay type: in vitro ADME
Source text: as §1

KP4 = assay: Cell viability assay (CellTiter Glo), pancreatic ductal adenocarcinoma KP4; assay type: cell-based, human; details: Homo sapiens, KP-4, 96 h, pancreatic cancer cell line KP4, 96 hours, CellTiter Glo; read-out: IC50 μM KP4
Procedure, shortened: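 KP4 cells seeded at 1,000–10,000 per well, treated 96 h with 9-point 3-fold dilutions from 30 μM top (4.6 nM–30 μM, duplicates; ≤0.25% DMSO). Viability by CellTiter Glo luminescence; % inhibition relative to DMSO-only wells, giving IC50, relative IC50 or % top inhibition.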

Compound | Whole Blood Stability % Remaining at 37° C. Mouse ([1]; 0 min) | Whole Blood Stability % Remaining at 37° C. Mouse ([1]; 30 min) | Whole Blood Stability % Remaining at 37° C. Mouse ([1]; 60 min) | Whole Blood Stability % Remaining at 37° C. Human ([2]; 0 min) | Whole Blood Stability % Remaining at 37° C. Human ([2]; 30 min) | Whole Blood Stability % Remaining at 37° C. Human ([2]; 60 min) | IC50 (KP4)
C[C@H]1Cc2c([nH]c3ccccc23)[C@H](c2ccc(C(=O)N[C@]34CC5C[C@H](C[C@H](C5)C3)C4)cc2)N1C(=O)CCl [Compound 102] | 100.0% | 87.2% | 90.1% | 100.0% | 96.3% | 75.6% | < 0.01 µM
C[C@H]1Cc2c([nH]c3ccccc23)[C@H](c2ccc(N3CCOCC3)cc2)N1C(=O)CCl [Compound 103, 2-chloro-1-((1S,3S)-3-methyl-1-(4-morpholinophenyl)-1,3,4,9-tetrahydro-2H-pyrido[3,4-b]indol-2-yl)ethan-1-one] | 100.0% | 87.1% | 56.6% | 100.0% | 98.4% | 75.2% | < 0.01 µM
C[C@H]1Cc2c([nH]c3ccccc23)[C@H](c2ccc(C3CCCC3)cc2)N1C(=O)CCl [Compound 109] | 100.0% | 79.2% | 87.7% | 100.0% | 96.1% | 68.1% | < 0.01 µM
C[C@H]1Cc2c([nH]c3ccccc23)[C@H](c2ccc(C3CCCCC3)cc2)N1C(=O)CCl [Compound 110] | 100.0% | 127.4% | 111.0% | 100.0% | 68.3% | 51.7% | < 0.01 µM
C[C@H]1Cc2c([nH]c3ccccc23)[C@@H](c2ccc(C(=O)NC34CC(C3)C4)cc2)N1C(=O)CCl [Compound 111] | 100.0% | 79.2% | 87.7% | 100.0% | 96.1% | 68.1% | 0.5 to 1 µM
C[C@H]1Cc2c([nH]c3ccccc23)[C@H](c2ccc(C3CCOCC3)cc2)N1C(=O)CCl [Compound 112] | 100.0% | 68.7% | 69.3% | 100.0% | 58.3% | 44.6% | < 0.01 µM
COC(=O)c1ccc([C@H]2c3[nH]c4ccc(OC)cc4c3C[C@H](C)N2C(=O)CCl)cc1 [Compound 113] | 100.0% | 89.5% | 2.4% | 100.0% | 85.1% | 92.7% | < 0.01 µM
C[C@H]1Cc2c([nH]c3ccc(F)cc23)[C@H](c2ccc(N3CCOCC3)cc2)N1C(=O)CCl [Compound 114] | 100.0% | 59.3% | 0.0% | 100.0% | 88.1% | 50.8% | < 0.01 µM
C[C@H]1Cc2c([nH]c3ccc(C#N)cc23)[C@H](c2ccc(N3CCOCC3)cc2)N1C(=O)CCl [Compound 115] | 100.0% | 34.2% | 0.0% | 100.0% | 72.9% | 44.0% | < 0.01 µM
C[C@H]1Cc2c([nH]c3ccccc23)[C@H](c2ccc(NCC3CC3)cc2)N1C(=O)CCl [Compound 116] | 100.0% | 82.6% | 67.1% | 100.0% | 79.2% | 62.0% | 0.1 to 0.5 µM
CCC[C@H]1Cc2c([nH]c3ccccc23)[C@H](c2ccc(N3CCOCC3)cc2)N1C(=O)CCl [Compound 118] | 100.0% | 60.7% | 0.0% | 100.0% | 100.2% | 68.8% | < 0.01 µM
COC(=O)c1ccc([C@H]2c3sc4ccccc4c3C[C@H](C(=O)OC)N2C(=O)CCl)cc1 [Example 55c] | 100.0% | 0.0% | 0.0% | 100.0% | 46.0% | 27.5% | 0.01 to 0.1 µM
COC(=O)c1ccc([C@@H]2c3sc4ccccc4c3C[C@H](C(=O)OC)N2C(=O)CCl)cc1 [Example 55d] | 100.0% | 0.0% | 0.0% | 100.0% | 60.8% | 41.2% | 0.1 to 0.5 µM
CC(C)(C)OC(=O)c1ccc([C@H]2c3[nH]c4ccccc4c3C[C@H](CO)N2C(=O)CCl)cc1 [Example 63a] | 100.0% | 4.5% | 0.0% | 100.0% | 35.0% | 13.2% | > 1 µM
CC(C)(C)OC(=O)c1ccc([C@@H]2c3[nH]c4ccccc4c3C[C@H](CO)N2C(=O)CCl)cc1 [Example 64a] | 100.0% | 8.3% | 3.2% | 100.0% | 38.0% | 15.5% | > 1 µM
COC(=O)c1ccc([C@@H]2c3[nH]c4ccccc4c3C[C@H](C)N2C(=O)CCl)cc1 [Example 77a] | 100.0% | 0.0% | 0.0% | 100.0% | 47.5% | 14.8% | 0.5 to 1 µM
